Data on one compound can be found in US20030133920A1, “Koji molds for preparing cholesterol lowering products” (priority 2000, published 2003).

What is called inhibition is the percentage by which the read-out fell short of the control.

Assay [1] has as its system cholesterol synthesis in human hepatic T9A4 cells. The experiment in a line: Inhibition test for cholesterol synthesis, 14C-acetate incorporation into cholesterol. Format: cell-based. The conditions noted are these: 1 mM 14C-acetate, 20 h, liquid fermentation extracts, extract concentration in the medium per row (37-70 μg/ml; lovastatin 0.5 μg/ml). The protocol:
(§1) The human hepatic T9A4 cells were grown in the serum-free LCM medium (Biofluids, Rockville, Md., USA) under 3.5% CO2 at 37° C. The cells were seeded into 24 well plates and incubated at confluency with 1 mM ^14C-acetate (1 mCi/mmol, Amersham) for 20 h in the absence (control) or in the presence of the fermented extract fractions. Cells were also incubated with 1.17 mM ^14C-mevalonate (0.85 mCi/mmol, Amersham) for 20 h in order to evaluate whether the compounds stemming from the microorganisms to be tested have an inhibitory effect downstream the HMGCoA/Mevalonate conversion step.
(§2) Lipid extraction was performed twice by incubation with hexane:isopropanol (3:2) for 30 min at room temperature. The combined extracts were dried under N2, redissolved in hexane and subjected to high performance thin layer chromatography (Merck, Darmstadt, Germany) in a solvent mixture of hexane:diethyl ether:acetic acid (75:25:1). The neo-synthesis of cholesterol was determined by measuring the ^14C-acetate incorporation into the cholesterol with an instant imager (Camberra Packard, Zurich, Switzerland) and expressed as percent of the control.

The test system is the same in assay [2]. The experiment in a line: Inhibition test for cholesterol synthesis in presence of 14C-mevalonate (downstream of HMGCoA/mevalonate step). Format: cell-based. The protocol: as §1, §2

As to `CC[C@H](C)C(=O)O[C@H]1C[C@@H](C)C=C2C=C[C@H](C)[C@H](CC[C@@H]3C[C@@H](O)CC(=O)O3)[C@H]21` [LOVASTATIN, lovastatin], the inhibition at 0.5 µg/mL in assay [1] stood at 56%; in assay [2] (human hepatic T9A4 cells, 1.17 mM 14C-mevalonate, 20 h, extract concentration in the medium per row (37-50 μg/ml; lovastatin 0.5 μg/ml)), 0%. The “inhibitory effect on cholesterol biosynthesis (in words)” value in assay [2] (T9A4 cells, in presence of 14C-mevalonate) is “does not inhibit cholesterol biosynthesis”.
